According to ChEMBL document CHEMBL4831531, “Mangostanin Derivatives as Novel and Orally Active Phosphodiesterase 4 Inhibitors for the Treatment of Idiopathic Pulmonary Fibrosis with Improved Safety” (J Med Chem, 2021):
pIC50: −log10 of the molar value. Calls of active or inactive are those of the source. The rule behind the calls is not given here.

Legend:
[1] = biological target: Voltage-gated inwardly rectifying potassium channel KCNH2 (Homo sapiens, UniProt Q12809); assay: Inhibition of human ERG
Chain of Voltage-gated inwardly rectifying potassium channel KCNH2 (Q12809 whole entry): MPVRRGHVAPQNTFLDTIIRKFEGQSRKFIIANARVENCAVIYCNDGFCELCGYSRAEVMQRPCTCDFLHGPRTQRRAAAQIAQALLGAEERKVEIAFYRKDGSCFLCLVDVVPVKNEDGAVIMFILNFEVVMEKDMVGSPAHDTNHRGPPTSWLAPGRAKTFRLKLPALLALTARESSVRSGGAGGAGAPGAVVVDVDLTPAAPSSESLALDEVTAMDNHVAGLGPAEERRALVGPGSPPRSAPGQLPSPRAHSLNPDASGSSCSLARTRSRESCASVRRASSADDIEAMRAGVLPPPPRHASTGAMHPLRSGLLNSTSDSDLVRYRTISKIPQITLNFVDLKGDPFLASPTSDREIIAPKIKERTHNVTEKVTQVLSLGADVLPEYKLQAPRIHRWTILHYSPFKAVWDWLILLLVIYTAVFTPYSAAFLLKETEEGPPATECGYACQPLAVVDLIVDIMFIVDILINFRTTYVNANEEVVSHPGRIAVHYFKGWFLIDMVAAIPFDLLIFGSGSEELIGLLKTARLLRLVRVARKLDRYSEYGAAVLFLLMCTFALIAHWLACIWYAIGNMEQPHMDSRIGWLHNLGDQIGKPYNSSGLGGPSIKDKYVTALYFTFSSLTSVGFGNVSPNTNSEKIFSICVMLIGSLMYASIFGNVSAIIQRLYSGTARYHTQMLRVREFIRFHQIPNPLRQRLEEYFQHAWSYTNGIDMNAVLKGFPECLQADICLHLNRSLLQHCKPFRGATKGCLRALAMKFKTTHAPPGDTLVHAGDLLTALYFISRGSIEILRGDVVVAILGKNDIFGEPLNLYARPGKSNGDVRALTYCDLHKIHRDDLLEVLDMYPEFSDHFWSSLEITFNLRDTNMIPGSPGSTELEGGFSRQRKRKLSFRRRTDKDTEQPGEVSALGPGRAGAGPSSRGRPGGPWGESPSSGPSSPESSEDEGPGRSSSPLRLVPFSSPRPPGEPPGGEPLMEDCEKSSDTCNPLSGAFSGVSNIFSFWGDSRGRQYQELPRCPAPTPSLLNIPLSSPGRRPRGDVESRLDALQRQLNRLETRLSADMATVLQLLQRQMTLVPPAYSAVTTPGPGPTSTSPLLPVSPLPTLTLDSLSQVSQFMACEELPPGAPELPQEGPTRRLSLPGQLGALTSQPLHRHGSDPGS

[2] = test system: Rattus norvegicus; assay: Anti-idiopathic pulmonary fibrotic activity in bleomycin-induced Sprague-Dawley rat model assessed as inhibition of collagen deposition around trachea and cell hyperplasia at 10 mg/kg, po treated for 28 consecutive days by Hematoxylin and eosin staining based assay relative to control; assay type: functional
[3] = Tmax in Sprague-Dawley rat at 5 mg/kg, po; assay type: ADME, organism-based; settings: in vivo
[4] = biological target: Cytochrome P450 2C9 (Homo sapiens, UniProt P11712); assay: Inhibition of human hepatic CYP2C9; assay type: ADME, tissue-based, Liver
Chain of Cytochrome P450 2C9 (P11712 whole entry): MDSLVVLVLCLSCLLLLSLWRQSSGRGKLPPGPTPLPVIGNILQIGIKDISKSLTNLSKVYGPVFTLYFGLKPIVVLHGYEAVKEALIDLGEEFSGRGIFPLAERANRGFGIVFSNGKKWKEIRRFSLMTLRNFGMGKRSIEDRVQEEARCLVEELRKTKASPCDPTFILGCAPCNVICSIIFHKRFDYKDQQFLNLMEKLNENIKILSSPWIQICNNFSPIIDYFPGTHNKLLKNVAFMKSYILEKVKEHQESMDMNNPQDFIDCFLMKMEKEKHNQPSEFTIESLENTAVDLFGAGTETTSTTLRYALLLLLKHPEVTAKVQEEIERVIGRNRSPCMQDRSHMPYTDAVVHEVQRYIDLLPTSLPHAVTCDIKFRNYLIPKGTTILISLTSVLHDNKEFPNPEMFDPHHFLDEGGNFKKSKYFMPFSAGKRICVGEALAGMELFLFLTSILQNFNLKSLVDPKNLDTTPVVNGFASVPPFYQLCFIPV

[5] = AUC (0 to t) in Sprague-Dawley rat at 5 mg/kg, po; assay type: ADME, organism-based; parameters: dose 5 mg/kg; settings: in vivo
[6] = biological target: High affinity cAMP-specific and IBMX-insensitive 3',5'-cyclic phosphodiesterase 8A (Homo sapiens, UniProt O60658); assay: Inhibition of PDE8A1 (480-828) (unknown origin) expressed in Escherichia coli BL21 assessed as using [3H]-cAMP as substrate measured for 15 mins by liquid scintillation counting analysis
Chain of High affinity cAMP-specific and IBMX-insensitive 3',5'-cyclic phosphodiesterase 8A (O60658 whole entry): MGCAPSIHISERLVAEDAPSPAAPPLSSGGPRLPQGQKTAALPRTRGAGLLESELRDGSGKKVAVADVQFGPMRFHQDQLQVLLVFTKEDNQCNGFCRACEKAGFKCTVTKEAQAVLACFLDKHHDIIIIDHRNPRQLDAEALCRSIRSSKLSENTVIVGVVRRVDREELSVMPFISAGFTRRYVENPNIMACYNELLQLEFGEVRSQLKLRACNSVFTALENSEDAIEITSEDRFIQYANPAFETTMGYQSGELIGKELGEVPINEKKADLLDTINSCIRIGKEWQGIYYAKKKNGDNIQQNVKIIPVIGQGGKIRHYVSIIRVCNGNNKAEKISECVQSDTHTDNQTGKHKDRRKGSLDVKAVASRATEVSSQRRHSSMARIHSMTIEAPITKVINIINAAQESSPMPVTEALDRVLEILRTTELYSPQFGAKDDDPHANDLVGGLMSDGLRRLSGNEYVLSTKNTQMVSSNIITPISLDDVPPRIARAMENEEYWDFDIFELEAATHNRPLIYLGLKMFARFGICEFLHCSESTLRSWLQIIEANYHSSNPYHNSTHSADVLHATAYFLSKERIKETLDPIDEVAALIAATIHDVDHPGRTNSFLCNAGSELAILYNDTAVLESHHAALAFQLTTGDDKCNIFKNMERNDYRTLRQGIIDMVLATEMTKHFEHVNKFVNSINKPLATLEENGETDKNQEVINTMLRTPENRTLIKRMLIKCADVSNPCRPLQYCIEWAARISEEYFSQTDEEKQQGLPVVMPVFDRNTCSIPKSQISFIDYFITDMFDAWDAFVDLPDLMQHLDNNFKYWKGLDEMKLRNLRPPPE

[7] = Half life in Sprague-Dawley rat at10 mg/kg, po; assay type: ADME, organism-based; settings: in vivo, dose 10 mg/kg
[8] = AUC (0 to infinity) in Sprague-Dawley rat at 5 mg/kg, po; assay type: ADME, organism-based; parameters: route oral, time infinity, dose 5 mg/kg; settings: in vivo
[9] = Half life in Sprague-Dawley rat at 5 mg/kg, po; assay type: ADME, organism-based; settings: in vivo
[10] = test system: Rattus norvegicus; assay: Anti-idiopathic pulmonary fibrotic activity in bleomycin-induced Sprague-Dawley rat model assessed as prevention of structural damage of lungs at 10 mg/kg, po treated for 28 consecutive days by Hematoxylin and eosin staining based assay relative to control; assay type: functional, organism-based
[11] = test system: Rattus norvegicus; assay: Anti-idiopathic pulmonary fibrotic activity in bleomycin-induced Sprague-Dawley rat model assessed as decrease in alpha-smooth muscle actin protein expression of lungs at 10 mg/kg, po treated for 28 consecutive days by Western blot analysis; assay type: functional, organism-based
[12] = biological target: Dual specificity calcium/calmodulin-dependent 3',5'-cyclic nucleotide phosphodiesterase 1C (Homo sapiens, UniProt Q14123); assay: Inhibition of PDE1C (147-531) (unknown origin) expressed in Escherichia coli BL21 assessed as using [3H]-cAMP as substrate measured for 15 mins by liquid scintillation counting analysis
Chain of Dual specificity calcium/calmodulin-dependent 3',5'-cyclic nucleotide phosphodiesterase 1C (Q14123 whole entry): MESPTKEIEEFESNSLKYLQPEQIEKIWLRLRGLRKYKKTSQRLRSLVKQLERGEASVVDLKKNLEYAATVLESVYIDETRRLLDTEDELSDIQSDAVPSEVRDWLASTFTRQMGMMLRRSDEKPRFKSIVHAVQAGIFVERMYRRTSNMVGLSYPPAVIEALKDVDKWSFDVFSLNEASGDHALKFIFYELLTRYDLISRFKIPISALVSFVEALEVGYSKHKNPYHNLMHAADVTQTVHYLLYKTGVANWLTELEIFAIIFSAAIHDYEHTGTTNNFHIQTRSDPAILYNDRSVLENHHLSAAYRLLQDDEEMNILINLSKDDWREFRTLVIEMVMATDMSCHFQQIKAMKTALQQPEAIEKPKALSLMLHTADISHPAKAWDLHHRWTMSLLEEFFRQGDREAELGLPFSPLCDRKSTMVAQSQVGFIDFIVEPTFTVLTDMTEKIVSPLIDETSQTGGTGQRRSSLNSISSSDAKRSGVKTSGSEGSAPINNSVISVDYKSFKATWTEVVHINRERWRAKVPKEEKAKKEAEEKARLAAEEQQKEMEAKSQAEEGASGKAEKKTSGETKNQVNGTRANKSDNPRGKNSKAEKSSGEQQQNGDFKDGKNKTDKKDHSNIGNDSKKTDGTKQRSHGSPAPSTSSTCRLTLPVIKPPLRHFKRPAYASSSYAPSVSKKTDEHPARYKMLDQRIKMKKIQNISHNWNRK

[13] = biological target: 3',5'-cyclic-AMP phosphodiesterase 4D (Homo sapiens, UniProt Q08499); assay: Inhibition of PDE4D2 (86-413) (unknown origin) expressed in Escherichia coli BL21 assessed as using [3H]-cAMP as substrate measured for 15 mins by liquid scintillation counting analysis
Chain of 3',5'-cyclic-AMP phosphodiesterase 4D (Q08499 whole entry): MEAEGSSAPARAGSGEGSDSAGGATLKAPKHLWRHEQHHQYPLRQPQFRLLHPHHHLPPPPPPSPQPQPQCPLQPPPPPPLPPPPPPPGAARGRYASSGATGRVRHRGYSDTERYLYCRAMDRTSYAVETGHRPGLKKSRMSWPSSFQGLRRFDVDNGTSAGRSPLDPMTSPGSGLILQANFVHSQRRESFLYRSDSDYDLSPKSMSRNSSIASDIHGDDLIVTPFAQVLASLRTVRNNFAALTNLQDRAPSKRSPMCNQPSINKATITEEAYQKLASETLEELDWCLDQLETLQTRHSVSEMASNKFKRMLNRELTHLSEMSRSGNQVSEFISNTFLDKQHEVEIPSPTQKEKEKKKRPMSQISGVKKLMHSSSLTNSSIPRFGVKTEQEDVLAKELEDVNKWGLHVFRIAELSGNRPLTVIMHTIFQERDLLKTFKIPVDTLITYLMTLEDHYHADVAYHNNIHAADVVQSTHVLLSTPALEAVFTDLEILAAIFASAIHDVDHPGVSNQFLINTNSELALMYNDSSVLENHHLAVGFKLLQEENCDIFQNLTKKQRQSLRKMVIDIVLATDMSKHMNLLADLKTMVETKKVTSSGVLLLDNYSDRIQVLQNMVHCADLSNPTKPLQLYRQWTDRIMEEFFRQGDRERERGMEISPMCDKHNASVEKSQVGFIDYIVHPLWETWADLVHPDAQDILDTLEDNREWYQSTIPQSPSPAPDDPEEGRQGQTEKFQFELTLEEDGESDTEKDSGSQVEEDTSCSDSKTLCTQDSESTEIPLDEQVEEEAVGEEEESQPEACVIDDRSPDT

[14] = test system: A549; assay: Anti-idiopathic pulmonary fibrotic activity in human A549 cells assessed as reduction in TGF-beta-induced fibronectin expression measured after 48 hrs by Western blot analysis; assay type: functional, cell-based; settings: dose 10-20 µM
[15] = biological target: High affinity 3',5'-cyclic-AMP phosphodiesterase 7A (Homo sapiens, UniProt Q13946); assay: Inhibition of PDE7A1 (130-482) (unknown origin) expressed in Escherichia coli BL21 assessed as using [3H]-cAMP as substrate measured for 15 mins by liquid scintillation counting analysis
Chain of High affinity 3',5'-cyclic-AMP phosphodiesterase 7A (Q13946 whole entry): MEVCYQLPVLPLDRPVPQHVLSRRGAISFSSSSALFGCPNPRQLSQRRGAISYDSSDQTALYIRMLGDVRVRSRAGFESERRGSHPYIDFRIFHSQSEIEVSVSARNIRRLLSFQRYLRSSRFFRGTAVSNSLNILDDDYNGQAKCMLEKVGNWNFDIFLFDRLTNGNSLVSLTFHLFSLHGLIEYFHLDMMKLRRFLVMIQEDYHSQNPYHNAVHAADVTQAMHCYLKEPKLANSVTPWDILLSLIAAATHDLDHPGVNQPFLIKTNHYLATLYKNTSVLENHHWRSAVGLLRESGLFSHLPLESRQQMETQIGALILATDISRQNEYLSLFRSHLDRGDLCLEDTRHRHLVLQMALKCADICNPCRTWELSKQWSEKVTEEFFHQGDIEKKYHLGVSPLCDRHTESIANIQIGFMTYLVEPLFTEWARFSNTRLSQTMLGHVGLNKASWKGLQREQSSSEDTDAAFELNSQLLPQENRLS

[16] = Toxicity in dog assessed as emesis at 10 mg/kg, po; assay type: organism-based, Canis lupus familiaris; settings: in vivo

COc1c(OCc2ccc(F)cc2)cc2oc3cc4c(c(OC/C=C/C(=O)O)c3c(=O)c2c1CC=C(C)C)C=CC(C)(C)O4
pIC50 [1]: < 4.40 | inhibition in vivo at 10 mg/kg [2]: 100% | Tmax [3]: 1 h | pIC50 [4]: 5.77 | AUC(0-t) [5]: 8420 ng·h/mL | pIC50 [6]: 6.15 | half-life [7]: 1.02 h | AUC(0-inf) [8]: 8460 ng·h/mL | half-life [9]: 1.55 h | Activity [10]: Active | Activity [11]: Active | pIC50 [12]: 6.36 | pIC50 [13]: 7.82 | Activity [14]: Dose-Dependent Effect | pIC50 [15]: 6.53 | Activity [16]: Non-Toxic
